Entries after “also recorded” stand apart in the source; their conditions may differ.
What was measured:
[1] = test system: IMQ induced psoriasis model; assay: IMQ induced psoriasis model in Balb/c mice; assay type: in vivo; conditions: Cpd. 4 100 mg/kg po qd day 0-6
Text: Imiquimod (IMQ) is a ligand for TLRs (Toll-like receptors) of immune cells (including macrophages, monocytes and plasmacytoid dendritic cells), and therefore contributes to strong activation of the immune system.
Female Balb/c mice (7-8 weeks old) were obtained from B&K Universal Animal Co. Ltd. Animals were housed and handled in a temperature-controlled environment with a 12-h light/12-h dark cycle. A total of 36 mice were assigned to 4 groups by randomization based on body weight (6 mice in normal control group and 10 mice in other 3 groups).
At the beginning of the study on day 0, five groups were administered a daily topical dose of 80 mg of a cream preparation containing 5% IMQ on their hair-free backs to establish a model of IMQ-induced psoriasis for seven consecutive days. The G1 normal control group received appropriate vaseline.
Mice in Group 1 and Group 2 were treated with vehicle for 7 days (po, qd, from day 0 to day 6). Mice in Group 3 were treated with 100 mg/kg Cpd. 4 for 7 days (po, qd, from day 0 to day 6). Mice in Group 4 were treated with 30 mg/kg tofacitinib for 7 days (po, bid, from day 0 to day 6). The protocols and procedures involving the care and use of animals were approved by the Institutional Animal Care and Use Committee (IACUC) at KCI (Suzhou, China).
The severity of skin inflammation was monitored and graded using a modified human scoring system Psoriasis Area Severity Index (PASI). Scaling, thickness, and erythema were scored separately on a scale from 0 to 4:0, none; 1, slight; 2, moderate; 3, marked; and 4, very marked. The total score denotes severity of inflammation. Ear thickness of mice was measured every day from day 0 to day 7.
Ear thickness of mice was measured every day from day 0 to day 7. […] Compared with G1 normal control group, after IMQ treatment, ear swelling was observed indicated by increased ear thickness in G2 group reaching the maximal ear thickness to 0.40±0.02 mm on day 7. Cpd.

[2] = test system: TNBS induced inflammatory bowel disease (IBD) model; assay: TNBS induced inflammatory bowel disease (IBD) model in Balb/c mice; assay type: in vivo; conditions: for colon weight: vehicle 336.8±25.15 mg; for colon length: vehicle 6.26±0.16 cm; for pathological score (colon, H&E): vehicle 10.33±0.35
Text: There are two kinds of IBD: Crohn's disease (CD) and ulcerative colitis (UC). TNBS administration results in a preclinical mouse model replicating clinical Crohn's disease.
Female Balb/c mice (8 weeks old) were obtained from Beijing Vital River Laboratory Animal Co. Ltd. Animals were housed and handled in a temperature-controlled environment with a 12-h light/12-h dark cycle. A total of 50 mice were assigned to 5 groups by randomization based on body weight.
On Day 0, the mice weighing 18-20 g were anesthetized with […] (Easycheck, M2910). The mice were further intra-rectally injected 100 μL 1.5% TNBS solution (final concentration 50% ethanol) in the vehicle group and other treatment groups. For the Sham group, the mice were intra-rectally injected with 50% ethanol at the same volume.
Mice in Group 1 and Group 2 were treated with vehicle for 8 days (po, qd, from day −1 to day 6). Mice in Group 3 were treated with 50 mg/kg Cpd. 4 for 8 days (preventive regimen, po, qd, from day −1 to day 6). Mice in Group 4 were treated with 50 mg/kg Cpd. 4 for 6 days (therapeutic regimen, po, qd, from day 1 to day 6). 50 mg/kg Mesalamine was used as positive control which was orally administered to mice in Group 5 for 8 days (preventive regimen, qd, from day −1 to day 6). The protocols and procedures involving the care and use of animals were approved by the Institutional Animal Care and Use Committee (IACUC) at WuxiApptec (Shanghai, China).
Clinical signs of IBD were assessed every day based on the score of disease activity index (DAI) which was evaluated from three parameters using a scoring system from 0 to 4: stool consistency (0, normal stool; 1, soft but still formed stool; 2, soft and not formed stool; 3, very soft and wet stool; 4, watery diarrhea), bleeding score (0, negative hemoccult; 1, weak positive hemoccult; 2, positive hemoccult; 3, blood trace in stool visible; 4, gross rectal bleeding) and body weight loss (0, no body weight loos; 1, 1-5% body weight loss; 2, 6-10% body weight loss; 3, 11-20% body weight loss; 4, >20% body weight loss).
At the end of induction with TNBS (day 7), the animals were euthanized, dissected and the entire colon was quickly removed and gently cleared of feces.
The entire colon was weighed, and the total length was measured. Colon weight gain and shortening is an indirect marker of inflammation. As expected, colon weight induced by TNBS increased to 336.8±25.15 mg. […] The TNBS-induced colon weight increasement were improved by Cpd. 4 treatment (202.4±3.95 mg for 50 mg/kg Cpd. 4 preventive therapy and 214.4±5.17 mg for 50 mg/kg Cpd. 4 therapeutic therapy) (FIG. 2).
At the end of induction with TNBS, the animals were euthanized, and blood was collected immediately by the heart punctures and used for whole blood cell analysis.
At the end of the study (day 7), the cell suspensions from sham control, model control and Cpd. 4 therapeutic treatment groups were obtained from mesenteric lymph nodes (MLN). Cells were stained with the following florescence-labelled antibodies: APC-Cy7-conjugated anti-mouse CD45, BV510-conjugated anti-mouse CD3e, AF700-conjugated anti-mouse CD8a, BUV395-conjugated anti-mouse CD4, BV421-conjugated anti-mouse CD25, FITC-conjugated anti-mouse Foxp3, BV650-conjugated anti-mouse IFN-γ, BV786-conjugated anti-mouse IL-17A, BB700-conjugated anti-mouse TNF-α, APC-conjugated anti-mouse B220, BV395-conjugated anti-mouse CD3e, BV605-conjugated anti-mouse CD11b, BB700-conjugated anti-mouse CD11c, AF488-conjugated anti-mouse MHCII, BV421-conjugated anti-mouse NK1.1, BV510-conjugated anti-mouse Ly6G, PE-Cy7-conjugated anti-mouse CD107a and PE-CF594-conjugated anti-mouse F4/80. All cells were primarily gated on single and live lymphocytes based on forward scatter (FCS), side scatter (SSC) and live/dead staining buffer. Samples were analyzed on a flow cytometer (BD LSRFortessa) to count the percentage of each subtype of lymphocytes. […]

[3] = 50 mg/kg po qd preventive treatment, day 7
[4] = 50 mg/kg po qd therapeutic treatment, day 7
[5] = 50 mg/kg po qd, Cpd. 4 preventive and therapeutic, mesalamine day −1 to day 6, compared with Vehicle
[6] = Cpd. 4 50 mg/kg po qd, preventive and therapeutic, compared with Vehicle, 50 mg/kg
[7] = mesenteric lymph nodes, flow cytometry, day 7, 50 mg/kg therapeutic treatment, compared with vehicle

Q: Which ear thickness ([1]; compared with Vehicle (0.40±0.02 mm day 7) and tofacitinib 30 mg/kg po bid) does the source give for `O=C(NS(=O)(=O)c1ccc(NC[C@H]2COCCO2)c([N+](=O)[O-])c1)c1ccc(N2CCN(CC3=C(c4ccc(Cl)cc4)CC4(CCC4)CC3)CC2)cc1Oc1cnc2[nH]ccc2c1` [Cpd. 4, (S)-N-((4-(((1,4-dioxan-2-yl)methyl)amino)-3-nitrophenyl)sulfonyl)-2-((1H-pyrrolo[2,3-b]pyridin-5-yl)oxy)-4-(4-((6-(4-chlorophenyl)spiro[3.5]non-6-en-7-yl)methyl)piperazin-1-yl)benzamide] here?
A: Its ear thickness is “significantly reducing the ear thickness; also recorded: comparable to that of tofacitinib; also recorded: significantly reduced”.

Q: And the “PASI score (Psoriasis Area Severity Index)” value ([1]; tofacitinib 30 mg/kg po bid, compared with Vehicle)?
A: Its value is “significantly reducing the clinical PASI score; also recorded: significantly reduced”.

Q: And the colon weight ([2]; 50 mg/kg po qd preventive therapy (day −1 to day 6), day 7)?
A: Its colon weight is 202.4 ± 3.95 mg.

Q: And the colon length [2, 3]?
A: The colon length was 7.81±0.2 cm.

Q: And the “pathological score (colon, H&E)” value [2, 3]?
A: Its value is 2.70±0.80.

Q: What about the colon weight ([2]; 50 mg/kg po qd therapeutic therapy (day 1 to day 6), day 7) of the same molecule?
A: Its colon weight is 214.4 ± 5.17 mg.

Q: And the colon length [2, 4]?
A: Its colon length is 7.39±0.12 cm.

Q: And the “pathological score (colon, H&E)” value [2, 4]?
A: The value was 5.00±1.15.

Q: What about the “disease activity index (DAI), clinical score of IBD” value ([2]; 50 mg/kg po qd, Cpd. 4 preventive (day −1 to day 6) and therapeutic (day 1 to day 6) regimens, mesalamine day −1 to day 6, compared with Vehicle) of the same molecule?
A: Its value is “significantly reducing the clinical score; also recorded: significantly reduced DAI”.

Q: What about the “colon length (in words)” value [2, 5] of the same molecule?
A: Its value is “increased colon length”.

Q: What about the “colon weight (in words)” value [2, 5] of the same molecule?
A: The value was “significantly decreased colon weight”.

Q: What about the body weight loss ([2]; Cpd. 4 50 mg/kg po qd, preventive and therapeutic regimens, compared with Vehicle, 50 mg/kg) of the same molecule?
A: Its body weight loss is “improving body weight loss; also recorded: improved body weight loss”.

Q: What about the “cell number of monocytes in peripheral blood” value [2, 6] of the same molecule?
A: Its value is “significantly reduced; also recorded: significantly decreased”.

Q: What about the “cell number of neutrophils in peripheral blood” value [2, 6] of the same molecule?
A: Its value is “significantly reduced; also recorded: significantly decreased”.

Q: What about the “anemia (red blood cells and hemoglobin in peripheral blood)” value ([2]; Cpd. 4 50 mg/kg po qd, compared with Vehicle) of the same molecule?
A: The value was “improved anemia”.

Q: What about the “fibrosis score (Masson's Trichrome staining of colon)” value ([2]; Cpd. 4 50 mg/kg therapeutic treatment, compared with Vehicle) of the same molecule?
A: Its value is “significantly reduced”.

Q: And the “pathological score (in words)” value ([2]; Cpd. 4 preventive and therapeutic, compared with Vehicle)?
A: The value was “significantly decreased”.

Q: And the “percentage of IFN-γ secreting CD4+ T cells (Th1 cells)” value [2, 7]?
A: The value was “significantly reduced”.

Q: And the “percentage of IL-17A secreting CD4+ T cells (Th17 cells)” value [2, 7]?
A: Its value is “significantly reduced”.

Q: And the “percentage of NK cells (CD45+CD3−B220−NK1.1+)” value [2, 7]?
A: The value was “significantly reduced”.

Q: What about the “percentage of activated NK cells (CD45+CD3−B220−NK1.1+CD107a+)” value [2, 7] of the same molecule?
A: The value was “significantly reduced”.

Q: What about the “percentage of macrophages (CD45+CD3−B220−CD11b+F4/80+)” value [2, 7] of the same molecule?
A: Its value is “significantly reduced”.

Q: And the “percentage of neutrophils (CD45+CD3−B220−CD11B+LY6G+)” value [2, 7]?
A: The value was “significantly reduced”.

— patent publication US20250152580A1, “METHODS FOR TREATING IMMUNE DISEASES” (Ascentage Pharma (Suzhou) co., Ltd., priority 2022, published 2025)
